According to US20120283216A1, “FUNGICIDAL 2-(BICYCLIC ARYLOXY)CARBOXAMIDES” (priority 2009, published 2012):

Tests used:
Type in all cases: in vivo
Septoria tritici = assay: Test B: wheat leaf blotch, preventive spray on wheat seedlings, visual disease rating; conditions: preventive spray at 40 ppm, rated after 48 h + 19 days; for pest or weed control at 40 ppm: Zymoseptoria tritici, 504 h, read-out: Test B disease control rating (100 = 100% disease control, 0 = no disease control relative to the controls)
Method in brief: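 Visual ratings of percent disease control relative to untreated controls were made 19 days after a 48 h saturated-atmosphere incubation at 20° C. Plants had been spore-inoculated one day after a preventive run-off spray at 40 ppm, equivalent to 800 g/ha.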

[1] = test system: Blumeria graminis f. sp. tritici; assay: Test A: wheat powdery mildew, preventive spray on wheat seedlings, visual disease rating; conditions: preventive spray at 40 ppm, rated 8 days after inoculation; for pest or weed control at 40 ppm: Blumeria graminis, 192 h, read-out: Test A disease control rating (100 = 100% disease control, 0 = no disease control relative to the controls)
Method in brief: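 After 8 days in a 20° C. growth chamber, disease was scored visually as % control versus untreated (100 = full control). Plants had received a run-off spray of 40 ppm (≈800 g/ha label rate) in acetone/water plus surfactant, with spore-dust inoculation one day later.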

Botrytis cinerea = assay: Test C: tomato botrytis, preventive spray on tomato seedlings, visual disease rating; conditions: preventive spray at 40 ppm, rated after 48 h + 3 days; for pest or weed control at 40 ppm: Botrytis cinerea, 120 h, read-out: Test C disease control rating (100 = 100% disease control, 0 = no disease control relative to the controls)
Method in brief: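 Compounds applied at 40 ppm (≈800 g/ha) in acetone/water with surfactant, sprayed to run-off on tomato seedlings. Inoculated next day with B. cinerea spores; 48 h saturated humidity at 20 °C, then 3 days at 27 °C. Visual rating as % disease control versus untreated controls.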

| SMILES | Test B disease control rating (100 = 100% disease control, 0 = no disease control relative to the controls) (Septoria tritici) [%] | Test A disease control rating (100 = 100% disease control, 0 = no disease control relative to the controls) [1] [%] | Test C disease control rating (100 = 100% disease control, 0 = no disease control relative to the controls) (Botrytis cinerea) [%] | pest or weed control at 40 ppm (Septoria tritici) [%] | pest or weed control at 40 ppm [1] [%] | pest or weed control at 40 ppm (Botrytis cinerea) [%] |
| --- | --- | --- | --- | --- | --- | --- |
| CCC(Oc1cnc2ccc(Br)cc2c1)C(=O)NC1(C(=O)OC)CC1 (stereo not drawn) [Compound 44] | 0 | 0 | 0 |  |  |  |
| C#CC(C)(C)NC(=O)C(OCC)Oc1ccc2ccc(OC)cc2c1 (stereo not drawn) [Compound 115] | 99 | 79 | 97 |  |  |  |
| C#Cc1ccc2ccc(OC(CC)C(=O)NC(C)(C)C#N)cc2c1 (stereo not drawn) [Compound 110, N-(1-cyano-1-methylethyl)-2-[(7-ethynyl-2-naphthalenyl)oxy]butanamide] |  |  |  | 100 | 100 | 100 |
| C#CC(C)(C)NC(=O)C(CC)Oc1ccc2ccc(CCC)cc2c1 (stereo not drawn) [Compound 144] | 93 | 99 | 98 |  |  |  |
| CCCc1ccc2ccc(OC(CC)C(=O)NC(C)(C)COC)cc2c1 (stereo not drawn) [Compound 143] | 100 | 98 | 99 |  |  |  |
| COCC(C)(C)NC(=O)C(OC)Oc1ccc2ccc(I)cc2c1 (stereo not drawn) [Compound 103, 2-[(7-iodo-2-naphthalenylyl)oxy]-2-methoxy-N-(2-methoxy-1,1-dimethylethyl)acetamide] | 100 | 100 | 100 |  |  |  |
| CCC(Oc1ccc2ccc(Br)cc2c1)C(=O)NC(C)(C)COC=O (stereo not drawn) [Compound 18] | 99 | 99 | 100 |  |  |  |
| C#CC(C)(C)NC(=S)C(CC)Oc1ccc2ccc(OC)cc2c1 (stereo not drawn) [Compound 164] |  |  |  | 97 | 0 | 99 |
| COC(Oc1cnc2ccc(I)cc2c1)C(=O)NC1(C)CC1 (stereo not drawn) [Compound 64] | 99 | 84 | 100 |  |  |  |
| CC#CC(C)(C)NC(=O)C(CC)Oc1ccc2ccc(CC)cc2c1 (stereo not drawn) [Compound 142] | 77 | 96 | 93 |  |  |  |
| C#Cc1ccc2ncc(OC(CC)C(=O)NCC(C)(C)C)cc2c1 (stereo not drawn) [Compound 153] | 92 | 0 | 93 |  |  |  |
| C#Cc1ccc2ncc(OC(CC)C(=O)NC(C)(C)C#C)cc2c1 (stereo not drawn) [Compound 151] | 100 | 99 | 96 |  |  |  |
| CCC(Oc1ccc2ccc(OCOC)cc2c1)C(=O)NC(C)(C)C (stereo not drawn) [Compound 71] | 99 | 81 | 99 |  |  |  |
| CCOC(Oc1ccc2ccc(OC)cc2c1)C(=O)NC(C)(C)C (stereo not drawn) [Compound 114] |  |  |  | 99 | 90 | 99 |
| CCC(Oc1ccc2ccc(Br)cc2c1)C(=O)NC(C)(C)C (stereo not drawn) [Compound 8, 2-[(7-bromo-2-naphthalenyl)oxy]-N-(1,1-dimethylethyl)butanamide] |  |  |  | 99 | 100 | 99 |
| CCC(Oc1cnc2c(Cl)cc(Cl)cc2c1)C(=O)NC(C)(C)COC (stereo not drawn) [Compound 56] | 99 | 0 | 99 |  |  |  |
| C#CC(C)(C)NC(=O)C(COC)Oc1cnc2ccc(Br)cc2c1 (stereo not drawn) [Compound 36] | 89 | 0 | 36 |  |  |  |
| COC(Oc1ccc2ccc(C(F)F)cc2c1)C(=O)NC(C)(C)C#N (stereo not drawn) [Compound 79] | 98 | 72 | 99 |  |  |  |
| CCOc1ccc2ccc(OC(OC)C(=O)NC(C)(C)C#N)cc2c1 (stereo not drawn) [Compound 68] | 100 | 100 | 100 |  |  |  |
| CCC(C)(C)NC(=O)C(OC)Oc1ccc2ccc(Br)cc2c1 (stereo not drawn) [Compound 101] | 100 | 92 | 100 |  |  |  |
| CCOc1ccc2ccc(OC(OCC)C(=O)NC(C)(C)C#N)cc2c1 (stereo not drawn) [Compound 123] | 100 | 82 | 98 |  |  |  |
| CCC(Oc1ccc2ccc(OC(F)F)cc2c1)C(=O)NC(C)(C)C (stereo not drawn) [Compound 5] |  |  |  | 99 | 99 | 100 |
| CCC(Oc1ccc2ccc(Br)cc2c1)C(=O)NC(C)(C)C#N (stereo not drawn) [Compound 1] | 100 | 91 | 100 |  |  |  |
| C#Cc1ccc2ccc(OC(CC)C(=O)NC(C)(C)C#CC)cc2c1 (stereo not drawn) [Compound 111, N-(1,1-dimethyl-2-butyn-1-yl)-2-[(7-ethynyl-2-naphthalenyl)oxy]butanamide] |  |  |  | 100 | 100 | 100 |
